Experimental data published in patent US20250313575A1, “MACROCYCLES AS LRRK2 INHIBITORS, PHARMACEUTICAL COMPOSITIONS, AND USES THEREOF” (Merck Sharp & Dohme LLC, priority 2022, published 2025).

target: GST-tagged truncated human mutant G2019S LRRK2 (Homo sapiens (Human), UniProt Q5S007, G2019S); assay: LRRK2 G2019S Km ATP LanthaScreen assay; assay type: biochemical; conditions: G2019S LRRK2, 134 μM ATP (Km ATP), LRRKtide substrate
Procedure: Unless otherwise noted, all reactions are magnetically allowed to stir, diethyl ether used in the experiments described below is Fisher ACS certified material stabilized with BHT, and “concentrated” and/or “solvent removed under reduced pressure” means evaporating the solvent from a solution or mixture using a rotary evaporator or vacuum pump. Unless otherwise noted, flash chromatography is carried out on a Teledyne Isco (Lincoln, NE), Analogix (Burlington, WI), or Biotage (Stockholm, SWE) automated chromatography system using a commercially available cartridge as the column. Columns may be purchased from Teledyne Isco, Analogix, Biotage, Varian (Palo Alto, CA), or Supelco (Bellefonte, PA) and are usually filled with silica gel as the stationary phase. Reverse phase prep-HPLC conditions, where used, can be found at the end of each experimental section. Aqueous solutions were concentrated on a Genevac (Ipswich, ENG) or by freeze-drying/lyophilization. Unless otherwise noted, all LRRK2 pIC50 data presented in tables refers to the LRRK2 G2019S Km ATP LanthaScreen™ assay (Life Technologies Corp., Carlsbad, CA) that is described in the Biological Assay section.
The LRRK2 kinase activity reported herein as IC50 values was determined with LanthaScreen™ technology from Life Technologies Corporation (Carlsbad, CA) using GST-tagged truncated human mutant G2019S LRRK2 in the presence of the fluorescein-labeled peptide substrate LRRKtide, also from Life Technologies. The data presented for the […] depending on the specific conditions and reagents used. Assays were performed in the presence of 134 μM ATP (Km ATP). Upon completion, the assay was stopped and phosphorylated substrate detected with a terbium (Tb)-labeled anti-pERM antibody (cat. no. PV4898). The compound dose response was prepared by diluting a 10 mM stock of compound to a maximum concentration of 9.99 μM in 100% dimethylsulfoxide followed by custom fold serial dilution in dimethylsulfoxide nine times. Twenty nanoliters of each dilution was spotted via a Labcyte Echo onto a 384-well black-sided plate (Corning 3575) followed by 15 μl of a 1.25 nM enzyme solution in 1× assay buffer (50 mM Tris pH 8.5, 10 mM MgCl2, 0.01% Brij-35, 1 mM EGTA, 2 mM dithiothreitol, 0.05 mM sodium orthovanadate). Following a 15-minute incubation at room temperature, the kinase reaction was started with the addition of 5 μl of 400 nM fluorescein-labeled LRRKtide peptide substrate and 134 μM ATP solution in 1× assay buffer. The reaction was allowed to progress at ambient temperature for 90 minutes. The reaction was then stopped by the addition of 20 μl of TR-FRET Dilution Buffer (Life Technologies, Carlsbad, CA) containing 2 nM Tb-labeled anti-phospho LRRKtide antibody and 10 mM EDTA (Life Technologies, Carlsbad, CA). After an incubation of 1 h at room temperature, the plate was read on an EnVision multimode plate reader (Perkin Elmer, Waltham, MA) with an excitation wavelength of 337 nm (Laser) and a reading emission at both 520 and 495 nm. Compound IC50s were interpolated from nonlinear regression best fits of the log of the final compound concentration, plotted as a function of the 520/495-nm emission ratio using Activity base. Abase uses a 4 parameter (4P) logistic fit based on the Levenberg-Marquardt algorithm.

GST-tagged truncated human mutant G2019S LRRK2, sequence (Q5S007 970-2527 G2019S): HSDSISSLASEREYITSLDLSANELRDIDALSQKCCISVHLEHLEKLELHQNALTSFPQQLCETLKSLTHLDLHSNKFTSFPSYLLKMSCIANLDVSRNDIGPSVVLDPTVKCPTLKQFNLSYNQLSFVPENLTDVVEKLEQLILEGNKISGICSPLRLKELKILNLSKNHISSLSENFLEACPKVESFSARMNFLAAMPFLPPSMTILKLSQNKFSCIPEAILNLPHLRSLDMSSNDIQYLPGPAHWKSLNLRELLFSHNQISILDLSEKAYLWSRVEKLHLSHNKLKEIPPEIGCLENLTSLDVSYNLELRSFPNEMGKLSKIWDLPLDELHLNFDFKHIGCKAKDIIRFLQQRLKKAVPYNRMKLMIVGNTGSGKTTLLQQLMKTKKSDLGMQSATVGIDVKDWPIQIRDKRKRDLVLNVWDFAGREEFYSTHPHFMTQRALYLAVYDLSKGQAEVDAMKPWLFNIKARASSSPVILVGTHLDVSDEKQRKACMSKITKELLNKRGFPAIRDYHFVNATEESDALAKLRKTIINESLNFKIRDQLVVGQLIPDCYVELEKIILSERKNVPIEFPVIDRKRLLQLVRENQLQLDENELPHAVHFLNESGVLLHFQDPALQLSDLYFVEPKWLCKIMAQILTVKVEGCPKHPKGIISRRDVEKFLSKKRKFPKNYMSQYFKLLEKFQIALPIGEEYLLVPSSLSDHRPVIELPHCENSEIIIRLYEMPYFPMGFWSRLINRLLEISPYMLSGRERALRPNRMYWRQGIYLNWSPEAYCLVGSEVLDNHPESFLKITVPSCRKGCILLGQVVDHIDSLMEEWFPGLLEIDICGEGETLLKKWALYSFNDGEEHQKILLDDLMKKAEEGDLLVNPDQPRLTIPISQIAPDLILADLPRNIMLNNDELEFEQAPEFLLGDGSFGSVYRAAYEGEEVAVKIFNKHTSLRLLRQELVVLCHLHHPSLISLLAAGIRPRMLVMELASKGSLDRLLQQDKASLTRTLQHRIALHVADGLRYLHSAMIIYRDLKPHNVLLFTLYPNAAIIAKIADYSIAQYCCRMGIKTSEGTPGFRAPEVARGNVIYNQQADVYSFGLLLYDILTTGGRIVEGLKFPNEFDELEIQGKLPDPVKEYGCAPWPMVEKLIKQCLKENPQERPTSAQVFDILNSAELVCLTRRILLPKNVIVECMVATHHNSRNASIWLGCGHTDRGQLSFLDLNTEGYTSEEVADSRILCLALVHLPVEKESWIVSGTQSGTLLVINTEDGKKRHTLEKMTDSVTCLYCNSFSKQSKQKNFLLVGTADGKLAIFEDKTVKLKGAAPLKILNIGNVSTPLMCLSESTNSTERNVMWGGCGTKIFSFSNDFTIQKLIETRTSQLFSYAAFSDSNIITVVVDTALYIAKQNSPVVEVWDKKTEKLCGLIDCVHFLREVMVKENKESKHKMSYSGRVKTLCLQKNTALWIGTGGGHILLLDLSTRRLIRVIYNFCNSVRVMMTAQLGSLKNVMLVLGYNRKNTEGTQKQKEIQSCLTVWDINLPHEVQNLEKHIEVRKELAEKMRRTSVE

Q: With `CC1CCOc2c(C(C)(C)C#N)nn(C3CCC3)c2Nc2ncc(C(F)(F)F)c(n2)N1` (single isomer, unassigned) [Ex-2.30, (R)- or (S)-butyl-7-methyl-10-(trifluoromethyl)-1,5,6,7,8,14-hexahydro-9,13-(azeno)pyrazolo[4,3-b][1]oxa[4,6,10]triazacyclotridecin-3-yl)-2-methylpropanenitrile] as the compound, how does the “LRRK2 pIC50” value read?
A: 10.03

Q: For `CC(C)n1nc(C2C[C@@H]2C#N)c2c1Nc1ncc(C(F)(F)F)c(n1)N[C@@H]1COC[C@H]1CO2` (single isomer, unassigned) [Ex-2.44, (1S,2S)- or (1R,2R)-2-((10aS,13aS)-3-isopropyl-8-(trifluoromethyl)-3,4,10a,11,13a,14-hexahydro-10H,13H-5,9-(azeno)furo[3,4-k]pyrazolo[4,3-b][1]oxa[4,6,10]triazacyclotridecin-1-yl)cyclopropane-1-carbonitrile], which “LRRK2 pIC50” value is on record?
A: 8.80

Q: For `CC(C)n1nc(C2C[C@@H]2C#N)c2c1Nc1ncc(C(F)(F)F)c(n1)N[C@@H]1COC[C@H]1CO2` (single isomer, unassigned) [Ex-2.45, (1S,2S)- or (1R,2R)-2-((10aS,13aS)-3-isopropyl-8-(trifluoromethyl)-3,4,10a,11,13a,14-hexahydro-10H,13H-5,9-(azeno)furo[3,4-k]pyrazolo[4,3-b][1]oxa[4,6,10]triazacyclotridecin-1-yl)cyclopropane-1-carbonitrile], which “LRRK2 pIC50” value is on record?
A: 8.32

Q: Which “LRRK2 pIC50” value does the source give for `N#CC1CC1c1nn(C2CCC2)c2c1OC[C@@H]1COC[C@H]1Nc1nc(ncc1C(F)(F)F)N2` (single isomer, unassigned) [Ex-2.50, (1R,2R)- or (1S,2S)-2-((10aS,13aS)-3-cyclobutyl-8-(trifluoromethyl)-3,4,10a,11,13a,14-hexahydro-10H,13H-5,9-(azeno)furo[3,4-k]pyrazolo[4,3-b][1]oxa[4,6,10]triazacyclotridecin-1-yl)cyclopropane-1-carbonitrile] here?
A: 9.77

Q: `N#CC1CC1c1nn(C2CCC2)c2c1OC[C@@H]1COC[C@H]1Nc1nc(ncc1C(F)(F)F)N2` (single isomer, unassigned) [Ex-2.51, (1R,2R)- or (1S,2S)-2-((10aS,13aS)-3-cyclobutyl-8-(trifluoromethyl)-3,4,10a,11,13a, 14-hexahydro-10H,13H-5,9-(azeno)furo[3,4-k]pyrazolo[4,3-b][1]oxa[4,6,10]triazacyclotridecin-1-yl)cyclopropane-1-carbonitrile] was tested. Which “LRRK2 pIC50” value did it give?
A: 9.05

Q: For `Cc1nn(C2CCC2)c2c1OC1COC[C@H]1CNc1nc(ncc1C(F)(F)F)N2` (single isomer, unassigned) [Ex-2.81, (11aR,14aS) or (11aS,14aR)-3-cyclobutyl-1-methyl-8-(trifluoromethyl)-3,4,10,11,11a,12,14,14a-octahydro-5,9-(azeno)furo[3,4-1]pyrazolo[4,3-b][1]oxa[4,6,10]triazacyclotridecine], which “LRRK2 pIC50” value is on record?
A: 5.99

Q: Which “LRRK2 pIC50” value does the source give for `Cc1nn(C2CCC2)c2c1OC1COC[C@H]1CNc1nc(ncc1C(F)(F)F)N2` (single isomer, unassigned) [Ex-2.82, (11aR,14aS) or (11aS,14aR)-3-cyclobutyl-1-methyl-8-(trifluoromethyl)-3,4,10,11,11a,12,14,14a-octahydro-5,9-(azeno)furo[3,4-1]pyrazolo[4,3-b][1]oxa[4,6,10]triazacyclotridecine] here?
A: 9.60

Q: For `O[C@@H]1COCC1n1nc(C2CC2)c2c1OC[C@H]1CC[C@@H]1Nc1nc(ncc1C(F)(F)F)N2` (single isomer, unassigned) [Ex-6.1, (3R,4S)-4-((10aR,12aR)- or (3R,4S)-4-((10aS,12aS)- or (3S,4R)-4-((10aR,12aR)- or (3S,4R)-4-((10aR,12aR)-3-cyclopropyl-8-(trifluoromethyl)-10,10a,11,12,12a,13-hexahydro-5,9-(azeno)cyclobuta[k]pyrazolo[3,4-b][1]oxa[4,6,10]triazacyclotridecin-1 (4H)-yl)tetrahydrofuran-3-ol], which “LRRK2 pIC50” value is on record?
A: 7.94

Q: How did the “LRRK2 pIC50” value turn out when `O[C@@H]1COCC1n1nc(C2CC2)c2c1OC[C@H]1CC[C@@H]1Nc1nc(ncc1C(F)(F)F)N2` (single isomer, unassigned) [Ex-6.2, (3R,4S)-4-((10aR,12aR)- or (3R,4S)-4-((10aS,12aS)- or (3S,4R)-4-((10aR,12aR)- or (3S,4R)-4-((10aR,12aR)-3-cyclopropyl-8-(trifluoromethyl)-10,10a,11,12,12a,13-hexahydro-5,9-(azeno)cyclobuta[k]pyrazolo[3,4-b][1]oxa[4,6,10]triazacyclotridecin-1 (4H)-yl)tetrahydrofuran-3-ol] was run?
A: >10.09

Q: With `O[C@@H]1COCC1n1nc(C2CC2)c2c1OC[C@H]1CC[C@@H]1Nc1nc(ncc1C(F)(F)F)N2` (single isomer, unassigned) [Ex-6.3, (3R,4S)-4-((10aR,12aR)- or (3R,4S)-4-((10aS,12aS)- or (3S,4R)-4-((10aR,12aR)- or (3S,4R)-4-((10aR,12aR)-3-cyclopropyl-8-(trifluoromethyl)-10,10a,11,12,12a,13-hexahydro-5,9-(azeno)cyclobuta[k]pyrazolo[3,4-b][1]oxa[4,6,10]triazacyclotridecin-1 (4H)-yl)tetrahydrofuran-3-ol] as the compound, how does the “LRRK2 pIC50” value read?
A: 7.29

Q: How did the “LRRK2 pIC50” value turn out when `O[C@@H]1COCC1n1nc(C2CC2)c2c1OC[C@H]1CC[C@@H]1Nc1nc(ncc1C(F)(F)F)N2` (single isomer, unassigned) [Ex-6.4, (3R,4S)-4-((10aR,12aR)- or (3R,4S)-4-((10aS,12aS)- or (3S,4R)-4-((10aR,12aR)- or (3S,4R)-4-((10aR,12aR)-3-cyclopropyl-8-(trifluoromethyl)-10,10a,11,12,12a,13-hexahydro-5,9-(azeno)cyclobuta[k]pyrazolo[3,4-b][1]oxa[4,6,10]triazacyclotridecin-1 (4H)-yl)tetrahydrofuran-3-ol] was run?
A: >10.09

Q: With `O[C@H]1CC[C@@H]1n1nc(C2CC2)c2c1OC[C@@H]1COC[C@H]1Nc1nc(ncc1C(F)(F)F)N2` (single isomer, unassigned) [Ex-6.8, (1R,2R)- or (1S,2S)-2-((10aS,13aS)-3-cyclopropyl-8-(trifluoromethyl)-10a,11,13a,14-tetrahydro-10H,13H-5,9-(azeno)furo[3,4-k]pyrazolo[3,4-b][1]oxa[4,6,10]triazacyclotridecin-1(4H)-yl)cyclobutan-1-ol] as the compound, how does the “LRRK2 pIC50” value read?
A: >10.09

Q: With `O[C@@H]1CC[C@H]1n1nc(C2CC2)c2c1OC[C@@H]1COC[C@H]1Nc1nc(ncc1C(F)(F)F)N2` (single isomer, unassigned) [Ex-6.9, (1R,2R)- or (1S,2S)-2-((10aS,13aS)-3-cyclopropyl-8-(trifluoromethyl)-10a,11,13a, 14-tetrahydro-10H,13H-5,9-(azeno)furo[3,4-k]pyrazolo[3,4-b][1]oxa[4,6,10]triazacyclotridecin-1(4H)-yl)cyclobutan-1-ol] as the compound, how does the “LRRK2 pIC50” value read?
A: >10.09

Q: With `Cc1nn(C)c2c1CCC[C@@H](C)Nc1nc(ncc1C(F)(F)F)N2` (single isomer, unassigned) [Ex-11.1, (R)- or (S)-1,3,7-Trimethyl-10-(trifluoromethyl)-4,5,6,7,8,14-hexahydro-1H-9,13-(azeno)pyrazolo[4,3-l][1,3,7]triazacyclotridecine] as the compound, how does the “LRRK2 pIC50” value read?
A: 8.49

same assay, conditions: G2019S LRRK2, 134 μM ATP (Km ATP), LRRKtide substrate; read-out: LRRK2 pIC50 (converted)

Q: With `COC1CC(n2nc(C)c3c2Nc2ncc(C(F)(F)F)c(n2)NC2COCC2CO3)C1` (single isomer, unassigned) [Ex-2.31, (10aS,13aS)- or (10aR,13aR)-3-((1R,3S)-3-methoxycyclobutyl)-1-methyl-8-(trifluoromethyl)-3,4,10a,11,13a,14-hexahydro-10H,13H-5,9-(azeno)furo[3,4-k]pyrazolo[4,3-b][1]oxa[4,6,10]triazacyclotridecine] as the compound, how does the IC50 read?
A: 288 nM

Q: How did the IC50 turn out when `COC1CC(n2nc(C)c3c2Nc2ncc(C(F)(F)F)c(n2)NC2COCC2CO3)C1` (single isomer, unassigned) [Ex-2.32, (10aS,13aS)- or (10aR,13aR)-3-((1R,3S)-3-methoxycyclobutyl)-1-methyl-8-(trifluoromethyl)-3,4,10a,11,13a,14-hexahydro-10H,13H-5,9-(azeno)furo[3,4-k]pyrazolo[4,3-b][1]oxa[4,6,10]triazacyclotridecine] was run?
A: 0.0912 nM
